The values that follow come from article PMC6531005 (Science Advances, 2019).

Bounds are passed on as bounds.

Type in all cases: biochemical
One test addresses CDC7 kinase (Homo sapiens, UniProt O00311). The test is described as follows: TR-FRET. (Time-resolved FRET reads energy transfer from a long-lived donor to a nearby acceptor.)
Another test concerns the target CDK9 (Homo sapiens, UniProt P50750). The test can be described thus: SelectScreen kinase selectivity panel.
A further test addresses CDK2 kinase (Homo sapiens, UniProt P24941). The test can be described thus: enzymatic kinase inhibition assay, CDK2/cyclin E.

CDC7 kinase, sequence (O00311 whole entry): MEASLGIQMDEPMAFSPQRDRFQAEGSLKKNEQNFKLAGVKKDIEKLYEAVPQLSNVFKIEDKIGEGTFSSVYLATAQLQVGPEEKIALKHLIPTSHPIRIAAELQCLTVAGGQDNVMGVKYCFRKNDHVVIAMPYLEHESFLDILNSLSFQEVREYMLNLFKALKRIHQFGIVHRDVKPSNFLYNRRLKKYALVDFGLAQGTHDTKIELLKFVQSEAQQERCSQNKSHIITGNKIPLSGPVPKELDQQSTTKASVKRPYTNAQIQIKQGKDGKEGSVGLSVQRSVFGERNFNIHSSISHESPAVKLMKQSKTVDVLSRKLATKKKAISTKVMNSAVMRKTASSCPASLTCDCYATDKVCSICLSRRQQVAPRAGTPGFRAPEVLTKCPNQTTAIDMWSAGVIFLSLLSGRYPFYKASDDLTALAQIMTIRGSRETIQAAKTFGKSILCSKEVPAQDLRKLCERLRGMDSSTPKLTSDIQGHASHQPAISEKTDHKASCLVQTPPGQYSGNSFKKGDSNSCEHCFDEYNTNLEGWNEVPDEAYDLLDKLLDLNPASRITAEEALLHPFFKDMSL
CDC7 kinase, sequence (Q9UBU7 whole entry partner): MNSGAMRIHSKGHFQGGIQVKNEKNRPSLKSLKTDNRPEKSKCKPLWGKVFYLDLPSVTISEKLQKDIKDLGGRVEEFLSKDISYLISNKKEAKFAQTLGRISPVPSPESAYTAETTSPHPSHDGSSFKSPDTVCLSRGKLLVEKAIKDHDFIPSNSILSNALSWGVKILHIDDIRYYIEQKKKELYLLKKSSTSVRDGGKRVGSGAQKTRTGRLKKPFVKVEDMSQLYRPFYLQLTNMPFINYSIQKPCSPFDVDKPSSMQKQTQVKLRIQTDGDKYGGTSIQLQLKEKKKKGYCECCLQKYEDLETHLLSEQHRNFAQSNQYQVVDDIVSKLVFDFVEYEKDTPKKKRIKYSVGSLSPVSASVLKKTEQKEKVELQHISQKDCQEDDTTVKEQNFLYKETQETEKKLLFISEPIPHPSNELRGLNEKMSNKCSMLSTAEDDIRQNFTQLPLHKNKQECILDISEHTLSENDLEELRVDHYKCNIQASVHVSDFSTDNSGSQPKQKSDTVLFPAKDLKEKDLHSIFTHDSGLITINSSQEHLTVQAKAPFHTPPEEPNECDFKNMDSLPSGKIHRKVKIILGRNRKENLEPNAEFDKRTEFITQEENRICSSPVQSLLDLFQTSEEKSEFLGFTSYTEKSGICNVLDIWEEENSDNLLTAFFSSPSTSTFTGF
CDK9, sequence (P50750 whole entry): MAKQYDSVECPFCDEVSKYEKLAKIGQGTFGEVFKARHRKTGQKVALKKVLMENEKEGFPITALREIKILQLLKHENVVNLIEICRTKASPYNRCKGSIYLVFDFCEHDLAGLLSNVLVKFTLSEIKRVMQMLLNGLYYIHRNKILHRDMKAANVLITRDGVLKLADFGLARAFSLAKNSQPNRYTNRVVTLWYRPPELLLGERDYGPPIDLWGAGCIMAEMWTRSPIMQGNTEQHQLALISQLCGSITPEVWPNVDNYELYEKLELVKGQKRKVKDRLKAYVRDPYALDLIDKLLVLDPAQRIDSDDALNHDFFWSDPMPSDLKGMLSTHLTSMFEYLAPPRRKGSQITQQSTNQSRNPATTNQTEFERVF

Usually IC50 stands for the midpoint of a concentration-inhibition curve. A high value points to a need for much substance. As to `Cc1n[nH]cc1-c1cc2nc([C@@H]3CC4CCN3CC4)[nH]c(=O)c2s1` [TAK-931, 2-[(2S)-1-azabicyclo[2.2.2]oct-2-yl]-6-(3-methyl-1H-pyrazol-4-yl)thieno[3,2-d]pyrimidin-4(3H)-one hemihydrate], the IC50 was less than 0.0003 µM against CDC7 kinase and 6.3 µM at CDK2 kinase. In addition, the “SelectScreen kinase selectivity panel (fig. S1B)” value at CDK9 is on record as “CDK9, which is the second high-affinity target of TAK-931 (fig. S1B)”.
